{
  "source": "patent US7932388B2",
  "about": "“Isotopically enriched N-substituted piperazines and methods for the preparation thereof” (DH Technologies Development Pte. Ltd., priority 2004, dated 2011)",
  "origin": "cited, not measured here",
  "settings": "alcohol (leaving group) of the trifluoroacetate ester; no method or conditions printed",
  "data": [
    {"substance": "N-hydroypyrrolidinone [NHP]", "values": [
      {"measurement": "pKa", "result": 9.38}
    ]}
  ]
}
